This is an account of results in PMC7766124, “Improved Cell Selectivity of Pseudin-2 via Substitution in the Leucine-Zipper Motif: In Vitro and In Vivo Antifungal Activity” (Antibiotics, 2020).

One data set has as its system C. krusei. It is filed as cell-based, C. krusei (CCARM 14017). To be noted: 36 h. An excerpt:
(§1) Aspergillus flavus (KCTC 6905), A. fumigatus (KCTC 6145), Fusarium moniliforme (KCTC 6149), F. oxysporum (KCTC 16909), C. albicans (KCTC 7270), C. krusei (CCARM 14017), C. parapsilosis (CCARM 14016), C. tropicalis (KCTC 7221), and T. beigelii (KCTC 7707) were obtained from the Korea Collection for Type Cultures (KCTC) and Culture Collection of Antimicrobial Resistant Microbes (CCARM). Mold and yeast fungi were pre-grown on potato dextrose (PD) and yeast extract peptone dextrose (YPD) agars, respectively.
(§2) Antifungal activity of peptides was performed by microtiter plate assays. Fungal conidia from four-day-old molds were collected using 0.08% Triton X-100 (v/v), and pre-cultivated yeast cells were adjusted to 2 × 10^4 spores/mL in 10 mM sodium phosphate buffer (SP, pH 7.2) or 10 mM 2-(N-morpholino)ethanesulfonic acid (MES) buffer (pH 5.5) supplemented with 20% culture medium, followed by addition to peptide solutions (0.25, 0.5, 1, 1.5, 2, 4, 6, 8, 12, 16, 32, 48, and 64 µM) in 96-well microtiter plates. After incubation for 36 h at 28 °C, the hyphal growth of conidia and the proliferation of yeast cells were observed under a light microscope. All assays were performed in triplicate. The MIC values were defined as the lowest concentration of samples that reduced fungal germination (for mold) or cell proliferation (for yeast) by more than 90% [34].

Another data set has as its system A. flavus. It is filed as cell-based, Aspergillus flavus (KCTC 6905). To be noted: 36 h.
Text: as §1, §2

Data set [1] in a line: Calcein leakage from fungus-mimic artificial vesicles. To be noted: fungus-mimic PC/PE/PI/ergosterol vesicles, 20 μM lipid; peptide/lipid molar ratio 0.05; 100% = 0.03% Triton X-100; three independent experiments. On the procedure:
(§3) The permeability of peptides in calcein-entrapped artificial liposomes was assayed by measuring calcein leakage. The desired mixtures of lipids (PC/PE/PI/ergosterol, 5:4:1:2 and PC/CH/SM, 2:1:1, weight ratio) were dissolved in chloroform at 10 mg/mL, dried in a glass tube under nitrogen, and then lyophilized overnight to remove residual solvent. The dried lipid films were resuspended in 1 mL of dye solution (80 mM calcein, 10 mM HEPES buffer, pH 7.2) at 50 °C and vortexed, followed by freeze-thawing for nine cycles and extrusion with polycarbonate filters (0.2-μm pore-size) using an Avanti Mini-Extruder (Avanti Polar Lipids Inc., Alabaster, AL, USA). Free calcein was removed using PD-10 desalting columns (GE Healthcare Life Science, Seoul, Korea). Calcein-entrapped vesicles of 20 μM lipids were incubated with peptides at concentrations of […], 0.02, 0.05, and 0.1 molar ratio (peptide/lipid) and the fluorescence was assessed at 480 (Ex) and 520 (Em) nm using a microtiter SpectraMax M5 reader (Molecular Devices). Complete (100%) release was achieved by the addition of 0.03% Triton X-100 (v/v).

A further data set deals with C. tropicalis. Kind of data set: C. tropicalis skin infection mouse model. It counts as in vivo, BALB/C female mice. On the procedure:
All animal experiments and procedures were performed with the approval of the Institutional Animal Care and Use Committee (IACUC) of Sunchon National University, Korea (SCNU IACUC-2019-10). BALB/C female mice (six weeks old) were obtained from Koatech Co. (Pyongtaek, Gyeonggido, Korea) and divided into three groups (n = 4): control, pseudin-2, and P2-LZ4 groups. The skin on the back of each mouse was shaved 1 h before infection, and the mice were anesthetized by inhalation of 5% (induction) and 2% (maintenance) isoflurane in pure oxygen. Mice were then subjected to subcutaneous infection with 100 µL C. tropicalis (10^7 cells/mL) by injection into the dorsum of each mouse. At 24 h after infection, 100 µL PBS, pseudin-2 (0.1 mg/mL), or P2-LZ4 (0.1 mg/mL) was injected into the same site. At four days after peptide injection, mice were euthanized by CO2 inhalation, and the infected skin tissues were excised, fixed in 4% paraformaldehyde, embedded in paraffin, stained with H&E, and observed by light microscopy.

In a further data set the test system is C. parapsilosis. It is filed as cell-based, C. parapsilosis (CCARM 14016). To be noted: 36 h.
Text: as §1, §2

A further data set relates to C. albicans. It counts as cell-based, C. albicans (KCTC 7270). To be noted: 36 h.
Text: as §1, §2

Data set [2] can be described thus: Calcein leakage from mammalian-mimic artificial vesicles. To be noted: mammalian-mimic PC/CH/SM vesicles, 20 μM lipid; peptide/lipid molar ratio 0.1; 100% = 0.03% Triton X-100. The protocol: as §3
The subject of another data set is T. beigelii. It is filed as cell-based, T. beigelii (KCTC 7707). To be noted: 36 h.
Text: as §1, §2

The subject of the next data set is C. tropicalis cells. The data set is described as follows: Mitochondrial superoxide, MitoSOX Red flow cytometry. It is filed as cell-based. To be noted: peptide at MIC for 8 h. The protocol: Mitochondrial SOX was measured using MitoSOX Red probe. C. tropicalis cells (2 × 10^4 spores/mL) were treated with samples at the appropriate MIC for 8 h and then stained with MitoSOX Red according to the manufacturer’s instructions. The stained cells were acquired by flow cytometry (Attune NxT Acoustic Focusing Cytometer; ThermoFisher Scientific Co., Eugene, OR, USA) at 561 nm by 10,000 total events.

Another data set concerns HaCaT cells. The data set is described as follows: Cytotoxicity, XTT cell viability assay. It is filed as cell-based, human. To be noted: peptides 4-256 µM, 24 h incubation, triplicate. On the procedure:
Cell viability was assessed using sodium XTT assays. HaCaT (human immortalized keratinocytes) cells were cultured in Dulbecco’s modified Eagle medium (DMEM; ThermoFisher Scientific, Gibco, Waltman, MA, USA) supplemented with antibiotic-antimycotic (ThermoFisher Scientific, Gibco) and 10% fetal bovine serum (FBS; ThermoFisher Scientific, Gibco) at 37 °C in a humidified chamber containing 5% CO2. The cells were seeded at 5 × 10^4 cells/mL in flat-bottom 96-well microtiter plates in triplicate. Twenty-four hours later, cells were treated with two-fold serial dilutions of peptides (ranging from 256 to 4 µM) in medium, and the cells were further incubated for 24 h. Next, activated-XTT solution was added to each well and the plates were additionally incubated for 4 h. Absorbance in each well was measured at wavelengths of 480 and 650 nm using a microtiter SpectraMax M5 reader (Molecular Devices, Sunnyvale, CA, USA). Triton X-100 (0.1% v/v) and DMEM were used as controls for survival.

For a further data set, the system named is F. moniliforme. It counts as cell-based, Fusarium moniliforme (KCTC 6149). To be noted: 36 h.
Text: as §1, §2

Read-outs that look alike come from different tables or passages of the source. No end group written: not given here.

With “GLNALKKVFQGIHEAIKLINNHVQ-NH2 [Pseudin-2]”, the MIC against C. krusei (pH 5.5) is 8 (8) µM; against C. krusei (pH 7.2), 8 (8) µM; against A. flavus (pH 5.5), 16 µM; against A. flavus (pH 7.2), 64 µM; in the data set on C. parapsilosis (pH 5.5), >64 (>64) µM; with C. parapsilosis (pH 7.2) it was >64 (>64) µM. Besides, the MIC is 32 µM in the data set on C. albicans (pH 5.5); 12 µM in the data set with C. albicans (pH 7.2); 2 (2) µM in the data set on T. beigelii (pH 5.5); 2 (2) µM in the data set with T. beigelii (pH 7.2); 64 µM against F. moniliforme (pH 5.5); 32 µM in the data set with F. moniliforme (pH 7.2). The leakage of calcein in data set [1] is on record as 80.1%. In addition, the “histological evaluation of skin tissues (H&E)” value in the data set with C. tropicalis (100 µL of 0.1 mg/mL peptide s.c. 24 h after infection, tissues taken four days after peptide injection) is listed as “able to recover from histological lesions”. Also, the “skin lesions (swelling and redness in the dorsal skin)” value in the data set with C. tropicalis (100 µL of 0.1 mg/mL peptide s.c. 24 h after s.c. infection, monitored seven days, n = 4) is “reduced swelling and redness”. Moreover, the calcein efflux result in data set [2] was “significant dye leakage”. In the data set with C. tropicalis cells, the “MitoSOX Red fluorescence (mitochondrial SOX)” value is on record as “a little right shift”. Besides, the “cytotoxic effects against HaCaT cells” value with HaCaT cells is listed as “significant, concentration-dependent cytotoxic effects”.
